Reference: patent US8772500B2, “TRPV3 modulators” (AbbVie Inc., priority 2011, dated 2014)
Like-named read-outs stand apart in the source and are kept apart here.

Legend:
[1] = In vitro rat microsomal stability assay; format: in vitro ADME, rat (Sprague-Dawley); conditions: for RAT […] (% REMAINING AFTER 30 MINUTES): 0.5 μM substrate, 0.25 mg/mL microsomal protein, pH 7.4, 37° C., NADPH; for RAT MICROSOMAL STABILITY (% REMAINING AFTER 30 MINUTES): Sprague-Dawley, 0.5 h, 0.5 μM, pH 7.4
In short: (§1)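 Rat (Sprague-Dawley) and human liver microsomes were incubated with test compound and NADPH at 37 °C. Time-zero samples also received NADPH.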

[2] = biological target: T1, human TRPV3 (Homo sapiens, UniProt Q8NET8); experiment: In vitro antagonism of recombinant human TRPV3 activation (FLIPR Tetra calcium assay, 2-APB as agonist); format: cell-based; conditions: HEK293 cells stably expressing human TRPV3, 2-APB 80 μM
T1 construct: expressed in transfected cells
T1 sequence (Q8NET8 1-790): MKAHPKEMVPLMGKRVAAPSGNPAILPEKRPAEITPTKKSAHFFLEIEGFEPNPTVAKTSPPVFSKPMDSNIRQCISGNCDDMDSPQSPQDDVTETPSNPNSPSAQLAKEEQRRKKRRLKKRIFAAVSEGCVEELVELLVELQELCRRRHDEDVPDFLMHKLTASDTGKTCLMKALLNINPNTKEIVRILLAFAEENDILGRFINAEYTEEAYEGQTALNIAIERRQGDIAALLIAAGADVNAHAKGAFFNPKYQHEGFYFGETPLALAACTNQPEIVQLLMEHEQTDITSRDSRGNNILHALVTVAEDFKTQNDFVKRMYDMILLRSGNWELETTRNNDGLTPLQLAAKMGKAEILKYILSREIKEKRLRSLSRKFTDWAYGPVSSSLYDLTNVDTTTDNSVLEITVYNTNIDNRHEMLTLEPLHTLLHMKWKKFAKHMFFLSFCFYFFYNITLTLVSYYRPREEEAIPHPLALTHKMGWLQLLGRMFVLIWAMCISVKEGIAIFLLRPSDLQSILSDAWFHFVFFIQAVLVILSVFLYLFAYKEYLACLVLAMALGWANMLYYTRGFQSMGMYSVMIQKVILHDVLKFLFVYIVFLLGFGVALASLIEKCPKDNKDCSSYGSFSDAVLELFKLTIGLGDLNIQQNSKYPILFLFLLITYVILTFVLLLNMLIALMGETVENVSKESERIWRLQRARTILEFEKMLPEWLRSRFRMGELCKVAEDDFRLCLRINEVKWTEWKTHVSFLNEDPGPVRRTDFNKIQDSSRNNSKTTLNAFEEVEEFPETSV
Protocol: Test compounds were evaluated for ability to antagonize the activation of recombinant human TRPV3 using FLIPR® Tetra cellular screening. Specifically, on the day prior to the experiment recombinant HEK293 cells that stably express human TRPV3 were removed from tissue culture flasks and plated in growth medium at 20,000 cells/well into Poly-d-lysine coated black/clear 384-well Plate (Corning, 3845) using a Multidrop® dispenser (ThermoScientific, Waltham, Mass.). Prior to the start of the assay, the medium was removed by aspiration, and cells were loaded with 30 μL no-wash FLIPR® Calcium-4 dye (λEX=470-495 nm, λEM=515-575 nm; Molecular Devices, Sunnyvale, Calif.). The cells were then incubated for 90-120 minutes in the dark prior to addition of the test compound.
A double-addition protocol was used. The test compound (i.e., the TRPV3 antagonist) was added at the 10 second time point, followed by the addition of a TRPV3 agonist three minutes later. Each test compound evaluated was first dissolved in DMSO to prepare a 10 mM stock solution. A solution (5×) of the test compound was then prepared in DPBS (Dulbecco's Phosphate Buffered Saline) and 10 μL of that solution was added to the cells at a delivery rate of 40 μL/sec. The TRPV3 agonist used to activate human TRPV3 expressed by the […] was 2-aminoethoxy-diphenyl borate (2-APB; Tocris Cookson, Ellisville, Mo.) at 80 μM. Final assay volume was 50 μL. Total length of an experimental run was 10 minutes.
Changes in fluorescence were measured over time using the FLIPR® instrument. The intensity of the fluorescence was captured and digitally transferred to an interfaced computer. The maximum response minus minimum response was calculated and expressed as the percentage of the maximum 2-APB response in the absence of antagonist. The concentration of 2-APB corresponds to its EC80.
Table 1 reports the IC50 values measured for the test compounds as human TRPV3 antagonists. […] Actual measured values are shown parenthetically after the reported range. In most cases, the values reported are average values from at least two runs (i.e., n≧2).

[3] = In vitro human microsomal stability assay; format: in vitro ADME; conditions: for HUMAN […] (% REMAINING AFTER 30 MINUTES): 0.5 μM substrate, 0.25 mg/mL microsomal protein, pH 7.4, 37° C., NADPH; for HUMAN MICROSOMAL STABILITY (% REMAINING AFTER 30 MINUTES): 0.5 h, 0.5 μM, pH 7.4
In short: as §1

[4] = range class, read-out: IC50 (reported range)
[5] = mostly average of n≧2, read-out: IC50 (actual measured value, shown parenthetically)

SMILES	RAT […] (% REMAINING AFTER 30 MINUTES) [1]	IC50 [2, 4]	HUMAN […] (% REMAINING AFTER 30 MINUTES) [3]	RAT MICROSOMAL STABILITY (% REMAINING AFTER 30 MINUTES) [1]	HUMAN MICROSOMAL STABILITY (% REMAINING AFTER 30 MINUTES) [3]	IC50 [2, 5]
O[C@H](c1ccccn1)[C@]1(c2cccc(C(F)(F)F)c2)C[C@H](O)C1 (relative stereo) [Example 259, cis-3-[(S)-hydroxy(pyridin-2-yl)methyl]-3-[3-(trifluoromethyl)phenyl]-cyclobutanol]	73%	0.05 to 0.5 µM	76%	–	–	–
O[C@H](c1ccccn1)[C@]1(c2cccc(C(F)(F)F)c2)C[C@@H](O)C1 (relative stereo) [Example 264, trans-3-[(S)-hydroxy(pyridin-2-yl)methyl]-3-[3-(trifluoromethyl)phenyl]-cyclobutanol]	59%	0.05 to 0.5 µM	56%	–	–	–
OC1CC(c2ccc(Cl)c(Cl)c2)(C(O)c2ccccn2)C1 (single isomer, unassigned) [Example 118]	–	0.05 to 0.5 µM	–	74%	>85%	–
OC1CC(c2ccc(Cl)c(Cl)c2)(C(O)c2ccccn2)C1 (single isomer, unassigned) [Example 119]	–	0.501 to 1 µM	–	69%	>85%	–
CC1(O)CC(c2ccc(OC(F)(F)F)cc2)(C(O)c2ccccn2)C1 (single isomer, unassigned) [Example 134]	–	0.501 to 1 µM	–	72%	78%	–
CC1(O)CC(c2ccc(C(F)(F)F)cc2)(C(O)c2ccccn2)C1 (single isomer, unassigned) [Example 232]	–	1.1 to 5 µM	–	67%	80%	–
CC1(O)CC(c2cccc(C(F)(F)F)c2)(C(O)c2ccccn2)C1 (single isomer, unassigned) [Example 236]	–	0.501 to 1 µM	–	41%	54%	–
OC(c1ccccn1)C1(C2=CCCOC2)CCC1 (single isomer, unassigned) [Example 269, [1-(5,6-dihydro-2H-pyran-3-yl)cyclobutyl](pyridin-2-yl)methanol]	–	5.1 to 20 µM	–	12%	40%	11.2 µM
OC(c1ccccn1)C1(C2=COCCC2)CCC1 (single isomer, unassigned) [Example 270, [1-(3,4-dihydro-2H-pyran-5-yl)cyclobutyl](pyridine-2-yl)methanol]	–	1.1 to 5 µM	–	0.48%	17%	3.94 µM
OC1CC(c2cc(C(F)(F)F)ccn2)(C(O)c2ccccn2)C1 (single isomer, unassigned) [Example 290]	–	> 20 µM	–	71%	>85%	–
CC1(O)CC(c2cncc(C(F)(F)F)c2)([C@H](O)c2ccccn2)C1 (stereo in doubt) [Example 309, trans-3-[(S)-hydroxy(pyridin-2-yl)methyl]-1-methyl-3-[5-(trifluoromethyl)-pyridin-3-yl]cyclobutanol]	–	1.1 to 5 µM	>85%	–	–	–
CCN(CC)c1ccc(C2(C(O)c3ccccn3)CCC2)cc1 (stereo not shown) [Example 18, {1-[4-(diethylamino)phenyl]cyclobutyl}(pyridin-2-yl)methanol]	–	0.501 to 1 µM	–	0.27%	–	–
OC(c1ncccn1)C1(c2cccc(OC(F)(F)F)c2)CCC1 (stereo not shown) [Example 37, pyrimidin-2-yl{1-[3-(trifluoromethoxy)phenyl]cyclobutyl}methanol]	–	0.501 to 1 µM	–	7.7%	–	–
OC(c1ncccn1)C1(c2ccc(Cl)c(Cl)c2)CCC1 (stereo not shown) [Example 38, [1-(3,4-dichlorophenyl)cyclobutyl](pyrimidin-2-yl)methanol]	–	0.05 to 0.5 µM	–	9.5%	–	–
CC(c1cccc(C(F)(F)F)c1)C1(C(O)c2ccccn2)CCC1 (stereo not shown) [Example 54, pyridin-2-yl(1-{1-[3-(trifluoromethyl)phenyl]ethyl}cyclobutyl)methanol]	–	> 20 µM	–	0.21%	–	–
NC1CCCCC1C(O)C1(c2ccc(C(F)(F)F)cc2)CCC1 (stereo not shown) [Example 207, (2-aminocyclohexyl){1-[4-(trifluoromethyl)phenyl]cyclobutyl}methanol]	–	1.1 to 5 µM	–	–	–	–
NC1CCCC1C(O)C1(c2cccc(OC(F)(F)F)c2)CCC1 (stereo not shown) [Example 208, (2-aminocyclopentyl){1-[3-(trifluoromethoxy)phenyl]cyclobutyl}methanol]	–	1.1 to 5 µM	–	36%	–	–
NC1CCCCC1C(O)C1(c2ccc(OC(F)(F)F)cc2)CCC1 (stereo not shown) [Example 209, (2-aminocyclohexyl){1-[4-(trifluoromethoxy)phenyl]cyclobutyl}methanol]	–	1.1 to 5 µM	–	–	–	–
NC1CCCCC1C(O)C1(c2cccc(OC(F)(F)F)c2)CCC1 (stereo not shown) [Example 210, (2-aminocyclohexyl){1-[3-(trifluoromethoxy)phenyl]cyclobutyl}methanol]	–	1.1 to 5 µM	–	–	–	–
NC1CCCCC1C(O)C1(c2ccc(Cl)c(Cl)c2)CCC1 (stereo not shown) [Example 211, (2-aminocyclohexyl) [1-(3,4-dichlorophenyl)cyclobutyl]methanol]	–	5.1 to 20 µM	–	–	–	–
NC1CCCC1C(O)C1(c2ccccc2OC(F)(F)F)CCC1 (stereo not shown) [Example 214, (2-aminocyclopentyl){1-[2-(trifluoromethoxy)phenyl]cyclobutyl}methanol]	–	1.1 to 5 µM	–	–	–	–
NC1CCCC1C(O)C1(c2ccc(Cl)c(Cl)c2)CCC1 (stereo not shown) [Example 215, (2-aminocyclopentyl) [1-(3,4-dichlorophenyl)cyclobutyl]methanol]	–	0.501 to 1 µM	–	–	–	–
N[C@H]1CCC[C@H]1[C@@H](O)C1(c2ccc(Cl)c(Cl)c2)CCC1 [Example 218, (R)-[(1R,2S)-2-aminocyclopentyl][1-(3,4-dichlorophenyl)cyclobutyl]-methanol]	–	1.1 to 5 µM	–	–	–	–
N[C@H]1CCC[C@@H]1[C@H](O)C1(c2ccc(Cl)c(Cl)c2)CCC1 [Example 219, (S)-[(1S,2S)-2-aminocyclopentyl][1-(3,4-dichlorophenyl)cyclobutyl]-methanol]	–	1.1 to 5 µM	–	–	–	–
CC1(O)CC(c2cccc(OC(F)(F)F)c2)(C(O)c2ccccn2)C1 [Example 263, trans-3-[(S)-hydroxy(pyridin-2-yl)methyl]-1-methyl-3-[3-(trifluoromethoxy)-phenyl]cyclobutanol]	–	1.1 to 5 µM	–	>85%	–	–
CC1(O)CC(c2ccnc(C(F)(F)F)c2)(C(O)c2ccccn2)C1 [Example 302, cis-3-[(S)-hydroxy(pyridin-2-yl)methyl]-1-methyl-3-[2-(trifluoromethyl)-pyridin-4-yl]cyclobutanol]	–	0.501 to 1 µM	–	–	–	–
